Laboratory results taken from ChEMBL document CHEMBL1201862, “PubChem BioAssay data set” (2004).
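Tested at 5 concentrations; 48 h exposure; 96-well plates; endpoints linearly interpolated, else capped at highest concentration. Here, GI50 denotes the concentration required for 50% inhibition of growth.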 Active and inactive are the calls of the source. No stated cut-off is given here; in the data, active = GI50 up to about 1.1 µM and inactive = higher.

Legend:
Assay in all cases: NCI tumour cell line growth inhibition, 48 h
K562 = system: K562
LOX IMVI = system: LOX IMVI
BT-549 = system: BT-549
MCF7 = system: MCF7
MOLT-4 = system: MOLT-4
UO-31 = system: UO-31
SNB-19 = system: SNB-19
786-0 = system: 786-0
KM12 = system: KM12
SK-OV-3 = system: SK-OV-3
TK-10 = system: TK-10
CCRF-CEM = system: CCRF-CEM
OVCAR-5 = system: OVCAR-5
SN12C = system: SN12C
SNB-75 = system: SNB-75
COLO 205 = system: COLO 205
CAKI-1 = system: CAKI-1
NCI-H460 = system: NCI-H460
SF-295 = system: SF-295
ACHN = system: ACHN

SMILES | GI50 (K562) | GI50 (LOX IMVI) | GI50 (BT-549) | GI50 (MCF7) | GI50 (MOLT-4) | GI50 (UO-31) | GI50 (SNB-19) | GI50 (786-0) | GI50 (KM12) | GI50 (SK-OV-3) | GI50 (TK-10) | GI50 (CCRF-CEM) | GI50 (OVCAR-5) | GI50 (SN12C) | GI50 (SNB-75) | GI50 (COLO 205) | GI50 (CAKI-1) | GI50 (NCI-H460) | GI50 (SF-295) | GI50 (ACHN)
COc1cc(/C=C2\C[C@H]3[C@@H]4CC=C5C[C@@H](N6CCCC6)CC[C@]5(C)[C@H]4CC[C@]3(C)[C@H]2O)cc(OC)c1OC | 13 µM (inactive) | 8.57 µM (inactive) | 16.1 µM (inactive) | 8.71 µM (inactive) | 8.11 µM (inactive) | 2.8 µM (inactive) | 18.8 µM (inactive) | 4.11 µM (inactive) | 7.57 µM (inactive) | 18.6 µM (inactive) | 20.3 µM (inactive) | 3.72 µM (inactive) | 8.79 µM (inactive) | 13.2 µM (inactive) | 12.1 µM (inactive) | 14.8 µM (inactive) | 15.5 µM (inactive) | 3.78 µM (inactive) | 13 µM (inactive) | 15.8 µM (inactive)
COc1nncc2[nH]c(-c3ccccc3)cc12 | 56.6 µM (inactive) | 65 µM (inactive) | 40.5 µM (inactive) | 49.7 µM (inactive) | 0.0652 µM (active) | 51.2 µM (inactive) | > 100 µM (inactive) | 70 µM (inactive) | > 100 µM (inactive) | > 100 µM (inactive) | 53.1 µM (inactive) | 44.9 µM (inactive) | > 100 µM (inactive) | 40.9 µM (inactive) | 58.1 µM (inactive) | > 100 µM (inactive) | 96.8 µM (inactive) | 64.6 µM (inactive) | 82.4 µM (inactive) | 54 µM (inactive)
CC1=Nc2c(O)nc(S)nc2NC(c2c(Cl)cccc2Cl)C1 (stereo not given) | 0.649 µM (active) | 0.766 µM (active) | 1.24 µM (inactive) | 1.13 µM (inactive) | 0.646 µM (active) | 5.19 µM (inactive) | 2.99 µM (inactive) | 0.902 µM (active) | 1.75 µM (inactive) | 7.28 µM (inactive) | 10.1 µM (inactive) | 0.275 µM (active) | 5.83 µM (inactive) | 1.42 µM (inactive) | 3.34 µM (inactive) | 1.87 µM (inactive) | 5.51 µM (inactive) | 1.92 µM (inactive) | 1.61 µM (inactive) | 4.86 µM (inactive)
COc1ccc(/C=C2\CCc3cc(OC)c(OC)cc3C2=O)cc1 | > 10 µM (inactive) | > 10 µM (inactive) | > 10 µM (inactive) | > 10 µM (inactive) | > 10 µM (inactive) | > 10 µM (inactive) | > 10 µM (inactive) | > 10 µM (inactive) | > 10 µM (inactive) | > 10 µM (inactive) | > 10 µM (inactive) | > 10 µM (inactive) | > 10 µM (inactive) | > 10 µM (inactive) | 5.12 µM (inactive) | > 10 µM (inactive) | > 10 µM (inactive) | > 10 µM (inactive) | > 10 µM (inactive) | > 10 µM (inactive)
COc1ccc2c(c1)-c1[nH]c3ccccc3c1CC2 | 21.6 µM (inactive) | 18.2 µM (inactive) | 17.2 µM (inactive) | 14.9 µM (inactive) | 12.1 µM (inactive) | 15.5 µM (inactive) | 15.7 µM (inactive) | 16.4 µM (inactive) | 13.6 µM (inactive) | 18.1 µM (inactive) | 16.1 µM (inactive) | 18 µM (inactive) | 15.7 µM (inactive) | 14.4 µM (inactive) | 15.2 µM (inactive) | 16.6 µM (inactive) | 15.4 µM (inactive) | 15.6 µM (inactive) | 14.2 µM (inactive) | 18.1 µM (inactive)
COc1ccc([N+](=O)[O-])c2c(NCCCN(C)C)ccnc12 | 1.77 µM (inactive) | 6.71 µM (inactive) | 2.21 µM (inactive) | 5.01 µM (inactive) | 1.8 µM (inactive) | 4.39 µM (inactive) | 8.3 µM (inactive) | 8.36 µM (inactive) | 7 µM (inactive) | 11.2 µM (inactive) | 10.2 µM (inactive) | 15 µM (inactive) | 5.9 µM (inactive) | 7.29 µM (inactive) | 1.28 µM (inactive) | 2.39 µM (inactive) | 8.39 µM (inactive) | 2.34 µM (inactive) | 3.61 µM (inactive) | 2.86 µM (inactive)
CCOP(=O)(OCC)C(c1ccccc1)N(C(=O)NC(F)(F)F)c1ccc(C)cc1 (stereo not given) | > 100 µM (inactive) | > 100 µM (inactive) | > 100 µM (inactive) | > 100 µM (inactive) | > 100 µM (inactive) | > 100 µM (inactive) | > 100 µM (inactive) | > 100 µM (inactive) | > 100 µM (inactive) | > 100 µM (inactive) | > 100 µM (inactive) | > 100 µM (inactive) | > 100 µM (inactive) | > 100 µM (inactive) | > 100 µM (inactive) | > 100 µM (inactive) | > 100 µM (inactive) | > 100 µM (inactive) | > 100 µM (inactive) | > 100 µM (inactive)
Cc1ccc(S(=O)(=O)SC(C)(C)C)cc1 | 19.9 µM (inactive) | 21.9 µM (inactive) | 22.4 µM (inactive) | 19.2 µM (inactive) | 18.2 µM (inactive) | > 100 µM (inactive) | > 100 µM (inactive) | 16.9 µM (inactive) | 45.2 µM (inactive) | > 100 µM (inactive) | 40.3 µM (inactive) | 12.6 µM (inactive) | > 48.4 µM (inactive) | 38.9 µM (inactive) | > 63.5 µM (inactive) | 47.6 µM (inactive) | 22.2 µM (inactive) | > 100 µM (inactive) | > 100 µM (inactive) | 38.5 µM (inactive)
O=CC(O)C(O)C(O)C(O)COC(=O)NCCCCC(=O)C(F)(F)C(F)(F)C(F)(F)C(F)(F)C(F)(F)C(F)(F)C(F)(F)F (stereo not given) | 11.8 µM (inactive) | 15.3 µM (inactive) | 16.1 µM (inactive) | 19.1 µM (inactive) | 10.7 µM (inactive) | > 100 µM (inactive) | 16 µM (inactive) | 32.7 µM (inactive) | 19.1 µM (inactive) | 21.7 µM (inactive) | 70.5 µM (inactive) | 18.4 µM (inactive) | 17.2 µM (inactive) | 32.4 µM (inactive) | 22.9 µM (inactive) | 30.5 µM (inactive) | 49.8 µM (inactive) | 26.9 µM (inactive) | 23.2 µM (inactive) | 30.2 µM (inactive)
O=c1c2c(no[n+]2[O-])c2ccccc2n1-c1ccccc1 | 2.74 µM (inactive) | 1.69 µM (inactive) | 3.03 µM (inactive) | 4.57 µM (inactive) | 3.03 µM (inactive) | 11.9 µM (inactive) | 14.5 µM (inactive) | 2.89 µM (inactive) | 13.9 µM (inactive) | 14.6 µM (inactive) | 17.3 µM (inactive) | 2.25 µM (inactive) | 14.8 µM (inactive) | 6.01 µM (inactive) | 10 µM (inactive) | 12.2 µM (inactive) | 2.65 µM (inactive) | 8.2 µM (inactive) | 14.8 µM (inactive) | 11.4 µM (inactive)
Cc1c2cccc-2ccc2c1[nH]c1ccccc12 | 2.94 µM (inactive) | 2.55 µM (inactive) | 3.24 µM (inactive) | 3.06 µM (inactive) | 3.57 µM (inactive) | 1.63 µM (inactive) | 2.7 µM (inactive) | 2.81 µM (inactive) | 2.34 µM (inactive) | 3.23 µM (inactive) | 2.32 µM (inactive) | 1.27 µM (inactive) | 2.12 µM (inactive) | 2.34 µM (inactive) | 2.14 µM (inactive) | 1.89 µM (inactive) | 6.31 µM (inactive) | 1.85 µM (inactive) | 2.38 µM (inactive) | 1.77 µM (inactive)
COc1cc(CCNC2=CC(=O)c3nc[nH]c3C2=O)ccc1O | 34.1 µM (inactive) | 19 µM (inactive) | 24.7 µM (inactive) | 17.1 µM (inactive) | 32.6 µM (inactive) | 40.3 µM (inactive) | 18.2 µM (inactive) | 35.7 µM (inactive) | 27.3 µM (inactive) | 34.4 µM (inactive) | 36.1 µM (inactive) | 33.3 µM (inactive) | 18.6 µM (inactive) | 19.1 µM (inactive) | 19 µM (inactive) | 22.6 µM (inactive) | 48.3 µM (inactive) | 25.7 µM (inactive) | 28.4 µM (inactive) | 30.3 µM (inactive)
N=C(N)NCC[C@H](NC(=O)OCCCCCn1ccc(=O)[nH]c1=O)C(=O)O | > 100 µM (inactive) | > 100 µM (inactive) | > 100 µM (inactive) | > 100 µM (inactive) | > 100 µM (inactive) | > 100 µM (inactive) | > 100 µM (inactive) | > 100 µM (inactive) | > 100 µM (inactive) | > 100 µM (inactive) | > 100 µM (inactive) | > 100 µM (inactive) | > 100 µM (inactive) | > 100 µM (inactive) | 41.4 µM (inactive) | > 100 µM (inactive) | > 100 µM (inactive) | > 100 µM (inactive) | > 100 µM (inactive) | > 100 µM (inactive)
C[C@H](C(=O)N1C(=O)O[C@@H](c2ccccc2)[C@H]1C)[C@H](c1ccccc1)N(Cc1ccccc1)OC(=O)c1ccccc1 | 31.6 µM (inactive) | 45.3 µM (inactive) | 38.3 µM (inactive) | 30.1 µM (inactive) | 22.1 µM (inactive) | 34.8 µM (inactive) | 35 µM (inactive) | 57.4 µM (inactive) | 49.3 µM (inactive) | 38.8 µM (inactive) | 90.6 µM (inactive) | 37.2 µM (inactive) | 68.1 µM (inactive) | 80.7 µM (inactive) | 29.9 µM (inactive) | 38.5 µM (inactive) | 77.1 µM (inactive) | 30.4 µM (inactive) | 21.6 µM (inactive) | 31.8 µM (inactive)
